Measured values reported in patent publication US10987360B2, “Hepatitis B core protein modulators” (Assembly Biosciences, Inc., priority 2016, dated 2021).
Like-named read-outs stand apart in the source and are kept apart here.

Key:
[1] = test system: AD38 cells; test: Viability of AD38 cells, Promega CellTiter-Glo; assay type: cell-based; conditions: 6 days incubation, controls being 100%; for AD38 Viability Normalized Result (CPAM/DMSO %) at 10 μM: Table 6, compounds of Group 4
Experimental: (§1) Assay Measuring Activity of Compounds on Viral Production in and on Viability of AD38 Cells
(§2) AD38 cells grown in a 175 cm flask with “Growth Medium” (DMEM/F12 (1:1) (cat #SH30023.01, Hyclone, 1×Pen/step (cat #: 30-002-CL, Mediatech, Inc), 10% FBS (cat #: 101, Tissue Culture Biologics), 250 μg/mL G418 (cat #: 30-234-CR, Mediatech, Inc), 1 μg/mL Tetracycline (cat #: T3325, Teknova)) were detached with 0.25% trypsin. Tetracycline-free “treatment medium” (15 mL DMEM/F12 (1:1) (cat #SH30023.01, Hyclone, 1×Pen/step (cat #: 30-002-CL, Mediatech, Inc), with 2% FBS, Tet-system approved (cat #: 631106, Clontech) were then added to mix and spun at 1300 rpm for 5 min. Pelleted cells were then re-suspended/washed with 50 mL of 1×PBS 2 times and 10 mL Treatment Medium one time. AD38 cells were then re-suspended with 10 mL of Treatment Medium and counted. Wells of a collagen coated 96-well NUNC microtiter plate were seeded at 50,000/well in 180 μL of Treatment Medium, and 20 μL of in treatment media with either 10% DMSO (Control) or a 10× solution of compound in 10% DMSO was added. Plates were incubated for 6 days at 37° C.
At the end of compound treatment period cell viability was assessed using a Promega CellTiter-Glo protocol. All supernatant was removed the previously treated 96-well microtiter plate, and 50 μL Tetracycline-free treatment medium (DMEM/F12 (1:1), 1×Pen/step (cat #: 30-002-CL, Mediatech, Inc), with 2% FBS, Tet-system approved (cat #: 631106, Clontech), and 1% DMSO was added back to each well. Another 50 μL of CellTiter-Glo reagent solution (Promega, G7573) was then added at room temperature and the contents mixed for 2 minutes on an orbital shaker to induce cell lysis. This was followed by incubation at room temperature for 10 minutes to stabilize the luminescent signal. The luminescence was recorded for 0.2 seconds per well on a Tecan multimode platereader (Infinite M1000 pro). The luminescent signal from each well was normalized against that of untreated (DMSO) control wells. All results in Tables 3-6 were reported with percent viability (with controls being 100%).

[2] = test system: HBV viral load in AD38 cells; test: Viral load production in AD38 cells, quantitative PCR of the core sequence in supernatant; assay type: cell-based; conditions: Hepatitis B virus, 144 h, 6 days incubation
Experimental: as §1, §2
Viral load production was assayed by quantitative PCR of the core sequence. Briefly, 5 μL of clarified supernatant was added to a PCR reaction mixture that contained forward primers HBV-f 5′-CTGTGCCTTGGGTGGCTTT-3′, Reverse primers HBV-r 5′-[…]-3′ and Fluorescent TaqMan™ Probes HBV-probe 5′-FAM/AGCTCCAAA/ZEN/[…]/3IABkFQ-3′ in Quanta Biosciences PerfeCTa® qPCR Toughmix®, and was subsequently on an Applied Biosystems VIIA7 in a final volume of 20 μL. The PCR mixture was incubated at 45° C. for 5 minutes, then 95° C. for 10 min, followed by 40 cycles of 10 seconds at 95° C. and 20 seconds at 60° C. Viral load was quantitated against known standards by using ViiA™ 7 Software. Viral load in the supernatant from wells with treated cells were compared against viral load in supernatant from DMSO control wells (≥3 per plate).

[3] = Table 4, compounds of Group 2, read-out: AD38 Viral Load (%) (VL with cmpd/VL in DMSO control) at 10 μM
[4] = Table 3, compounds of Group 1, read-out: AD38 Viral Load (%) (VL with cmpd/VL in DMSO control) at 10 μM
[5] = Table 5, compounds of Group 3, read-out: AD38 Viral Load (%) (VL with cmpd/VL in DMSO control) at 10 μM
[6] = Table 6, compounds of Group 4, read-out: AD38 Viral Load (CpAM/DMSO %) at 10 μM

SMILES	AD38 Viability Normalized Result (cmpd/DMSO %) at 10 μM ([1]; Table 4, compounds of Group 2) [%]	activity at 10 µM [2, 3] [%]	AD38 Viability Normalized Result (cmpd/DMSO %) at 10 μM ([1]; Table 3, compounds of Group 1) [%]	activity at 10 µM [2, 4] [%]	further results
N#Cc1ccc(-c2ncc(CNC(=O)c3ccc4c(c3)NC(=O)[C@H]3CCCCN3S4(=O)=O)s2)c(F)c1 (single isomer, unassigned) [C25-02-Isomer II]	111	0.6	–	–	–
N#Cc1ccc(-c2ncc(CNC(=O)c3ccc4c(c3)NC(=O)[C@@H]3CCCCN3S4(=O)=O)s2)c(F)c1 (single isomer, unassigned) [C25-02-Isomer I]	108	3	–	–	–
O=C(NCc1cnc(-n2cccn2)s1)c1ccc2c(c1)NC(=O)[C@H]1CCCCN1S2(=O)=O (single isomer, unassigned) [C25-04-Isomer II]	99	1.7	–	–	–
O=C(NCc1cnc(-n2cccn2)s1)c1ccc2c(c1)NC(=O)[C@@H]1CCCCN1S2(=O)=O (single isomer, unassigned) [C25-04-Isomer I]	104	8.3	–	–	–
Cc1ncc(CNC(=O)c2ccc3c(c2)NC(=O)c2ccncc2S3)s1 [Compound 576]	98	11.7	–	–	–
O=C(NCc1cnc(-c2ccccc2)s1)c1ccc2c(c1)NC(=O)c1ccncc1S2 [Compound 578]	100	3	–	–	–
O=C(NCc1cnc(-c2ccc(O)cc2)s1)c1ccc2c(c1)NC(=O)c1ccncc1S2 [Compound 762]	102	45.6	–	–	–
O=C1CCC(c2ncc(CNC(=O)c3ccc4c(c3)NC(=O)c3ccccc3S4(=O)=O)s2)CC1 [Compound 818, 11-oxo-N-((2-(4-oxocyclohexyl)thiazol-5-yl)methyl)-10,11-dihydrodibenzo[b,f][1,4]thiazepine-8-carboxamide 5,5-dioxide]	–	–	84	1.3	–
Cl.NC1CCC(Cc2ncc(CNC(=O)c3ccc4c(c3)NC(=O)c3ccccc3S4(=O)=O)s2)CC1 (stereo not drawn) [Compound 884, N-((2-((4-aminocyclohexyl)methyl)thiazol-5-yl)methyl)-11-oxo-10,11-dihydrodibenzo[b,f][1,4]thiazepine-8-carboxamide 5,5-dioxide hydrochloride]	–	–	94	15.1	–
O=C(NCc1cnc(C2CCC(O)CC2)s1)c1ccc2c(c1)NC(=O)c1ccccc1S2(=O)=O (stereo not drawn) [Compound 924, N-((2-(4-hydroxycyclohexyl)thiazol-5-yl)methyl)-11-oxo-10,11-dihydrodibenzo[b,f][1,4]thiazepine-8-carboxamide 5,5-dioxide]	–	–	95	0.7	–
CC(C)(C)OC(=O)N1CCC(c2ncc(CNC(=O)c3ccc4c(c3)NC(=O)c3ccccc3S4(=O)=O)s2)CC1 [Compound 926-A]	–	–	98	3.6	–
O=C(NCc1cnc(CN2CCOCC2)s1)c1ccc2c(c1)NC(=O)c1ccccc1S2(=O)=O [Compound 927]	–	–	92	4.7	–
CC1(C)CCC(c2ncc(CNC(=O)c3ccc4c(c3)NC(=O)c3ccccc3S4(=O)=O)s2)C1 (stereo not drawn) [Compound 979]	–	–	59	0.5	–
O=C1CCC(c2ncc(CNC(=O)c3ccc4c(c3)NC(=O)c3ccccc3S4(=O)=O)s2)C1 (stereo not drawn) [Compound 980-A, 11-oxo-N-((2-(3-oxocyclopentyl)thiazol-5-yl)methyl)-10,11-dihydrodibenzo[b,f][1,4]thiazepine-8-carboxamide 5,5-dioxide]	–	–	97	1.2	–
COC1(OC)CCC(c2ncc(CNC(=O)c3ccc4c(c3)NC(=O)c3ccccc3S4(=O)=O)s2)C1 (stereo not drawn) [Compound 980-B, N-((2-(3,3-dimethoxycyclopentyl)thiazol-5-yl)methyl)-11-oxo-10,11-dihydrodibenzo[b,f][1,4]thiazepine-8-carboxamide 5,5-dioxide]	–	–	93	0.9	–
O=C(NCc1cnc(C(F)(F)F)s1)c1ccc2c(c1)NC(=O)c1ccncc1S2(=O)=O [Compound 1020]	97	6.1	–	–	–
N#Cc1ccc(-c2ncc(CNC(=O)c3ccc4c(c3)NC(=O)c3ccncc3S4(=O)=O)s2)c(F)c1 [Compound 1021]	96	0.3	–	–	–
C[C@H](N)C(=O)N1CCC(c2ncc(CNC(=O)c3ccc4c(c3)NC(=O)c3ccccc3S4(=O)=O)s2)CC1.Cl [Compound 1034, N-((2-(1-(L-alanyl)piperidin-4-yl)thiazol-5-yl)methyl)-11-oxo-10,11-dihydrodibenzo[b,f][1,4]thiazepine-8-carboxamide 5,5-dioxide hydrochloride]	–	–	106	67.7	–
Cc1c(C(=O)NCc2cnn(-c3nccs3)c2)ccc2c1NC(=O)c1ccccc1S2(=O)=O [Compound 1153, 9-methyl-11-oxo-N-((1-(thiazol-2-yl)-1H-pyrazol-4-yl)methyl)-10,11-dihydrodibenzo[b,f][1,4]thiazepine-8-carboxamide 5,5-dioxide]	–	–	–	–	AD38 Viability Normalized Result (cmpd/DMSO %) at 10 μM ([1]; Table 5, compounds of Group 3): 92%; activity at 10 µM [2, 5]: 2.1%
O=C(NCc1cnn(-c2nccs2)c1)c1ccc2c(c1)NC(=O)c1ccccc1S2(=O)=O [Compound 1155, 11-oxo-N-((1-(thiazol-2-yl)-1H-pyrazol-4-yl)methyl)-10,11-dihydrodibenzo[b, f][1,4]thiazepine-8-carboxamide 5,5-dioxide]	–	–	–	–	AD38 Viability Normalized Result (cmpd/DMSO %) at 10 μM ([1]; Table 5, compounds of Group 3): 104%; activity at 10 µM [2, 5]: 0.6%
CC1=C(C)C(=O)Nc2cc(C(=O)NCc3cnc(C(F)(F)F)s3)ccc2O1 [Compound C1-01]	106	27.9	–	–	–
CC1=C(C)C(=O)Nc2cc(C(=O)NCc3cnc(-c4ccc(C#N)cc4F)s3)ccc2O1 [Compound C1-02]	103	20.4	–	–	–
Cc1cc(=O)[nH]c2cc(C(=O)NCc3cnc(C(F)(F)F)s3)ccc12 [Compound C2-01, 4-Methyl-2-oxo-N-((2-(trifluoromethyl)thiazol-5-yl)methyl)-1,2-dihydroquinoline-7-carboxamide]	–	–	–	–	AD38 Viability Normalized Result (CPAM/DMSO %) at 10 μM [1]: 113%; activity at 10 µM [2, 6]: 69.7%
CC(C)c1cc(=O)[nH]c2cc(C(=O)NCc3cnc(C(F)(F)F)s3)ccc12 [Compound C3-01, 4-Isopropyl-2-oxo-N-((2-(trifluoromethyl)thiazol-5-yl)methyl)-1,2-dihydroquinoline-7-carboxamide]	–	–	–	–	AD38 Viability Normalized Result (CPAM/DMSO %) at 10 μM [1]: 105%; activity at 10 µM [2, 6]: 44.6%
